The test addresses T1, recombinant human sphingosine kinase 1 (rhSphK1) (Homo sapiens, UniProt Q9NYA1).
T1 construct: gene SPHK1; full-length (1155 bp CDS), 6×His tag, ~50 kDa, E. coli
In words: Microscale thermophoresis (SphK2 inhibitor used as control). It counts as binding.

A word on the Kd: it is a measure of binding affinity in units of concentration.

T1 sequence (Q9NYA1 whole entry): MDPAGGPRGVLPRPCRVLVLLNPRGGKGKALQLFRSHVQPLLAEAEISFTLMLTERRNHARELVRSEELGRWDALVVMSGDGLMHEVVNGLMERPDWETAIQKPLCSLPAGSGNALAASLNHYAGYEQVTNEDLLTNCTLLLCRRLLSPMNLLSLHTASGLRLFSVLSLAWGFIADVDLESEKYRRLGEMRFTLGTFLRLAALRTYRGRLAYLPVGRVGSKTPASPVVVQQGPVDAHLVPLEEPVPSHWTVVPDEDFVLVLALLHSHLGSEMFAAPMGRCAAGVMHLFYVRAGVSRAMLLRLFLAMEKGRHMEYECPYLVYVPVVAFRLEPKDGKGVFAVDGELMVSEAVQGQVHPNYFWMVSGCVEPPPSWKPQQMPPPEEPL

With `O=C(NCc1ccncc1)C12CC3CC(C1)CC(c1ccc(Cl)cc1)(C3)C2` [ABC294640], the Kd came to 70.6 µM.

The values above are taken from paper PMC13086438 (PLOS Neglected Tropical Diseases, 2026).
